Ends that are not written are not given here.
What was measured:
Type in all cases: cell-based
ADGRD1 = molecular target: T1, ADGRD1 (Homo sapiens, UniProt Q6QNK2); assay: BRET assay using TRUPATH biosensors, G protein activation of ADGRD1; conditions: Gs, ADGRD1 WT, n = 3
T1 construct: Flag (N); expressed in transfected cells; host or cells: HEK293F
T1 sequence (Q6QNK2 26-874): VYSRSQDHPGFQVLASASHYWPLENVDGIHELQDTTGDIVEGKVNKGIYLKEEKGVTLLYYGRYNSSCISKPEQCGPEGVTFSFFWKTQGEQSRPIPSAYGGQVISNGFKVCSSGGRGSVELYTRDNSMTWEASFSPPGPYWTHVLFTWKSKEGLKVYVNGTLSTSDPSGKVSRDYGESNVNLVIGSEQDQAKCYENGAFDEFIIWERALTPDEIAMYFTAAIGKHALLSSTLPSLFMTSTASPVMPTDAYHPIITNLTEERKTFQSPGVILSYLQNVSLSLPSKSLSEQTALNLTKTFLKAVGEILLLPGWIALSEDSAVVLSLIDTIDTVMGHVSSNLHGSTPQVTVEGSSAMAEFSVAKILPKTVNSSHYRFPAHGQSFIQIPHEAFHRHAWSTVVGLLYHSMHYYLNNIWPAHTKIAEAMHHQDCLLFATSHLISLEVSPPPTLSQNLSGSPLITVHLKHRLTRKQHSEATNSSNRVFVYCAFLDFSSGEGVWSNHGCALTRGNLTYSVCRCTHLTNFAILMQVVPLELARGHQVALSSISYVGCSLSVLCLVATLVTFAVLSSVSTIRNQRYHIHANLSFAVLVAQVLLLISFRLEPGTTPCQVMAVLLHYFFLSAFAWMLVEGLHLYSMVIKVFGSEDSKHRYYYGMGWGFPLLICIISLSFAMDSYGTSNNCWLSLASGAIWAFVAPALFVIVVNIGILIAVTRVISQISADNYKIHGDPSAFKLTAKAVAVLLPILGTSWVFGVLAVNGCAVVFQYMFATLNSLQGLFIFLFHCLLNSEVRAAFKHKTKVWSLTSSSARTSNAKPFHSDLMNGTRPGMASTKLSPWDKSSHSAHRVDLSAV
Experimental: To study the synthetic stalk peptide-induced G protein activation of ADGRD1 and ADGRF1, a BRET assay using TRUPATH biosensors was conducted to measure the proximal interaction between RLuc8 fused to the Gα subunit and GFP2 fused to the Gγ subunit. The TRUPATH suite of biosensors was obtained from Addgene (Addgene kit no. 1000000163) as a gift from B. Roth, including GαsS-RLuc8, Gαi1-RLuc8, Gβ3 and Gγ9-GFP2 as previously described.
The wild-type or mutant ADGRD1 and ADGRF1 were transiently co-transfected with plasmids encoding Gα-RLuc8 (GαsS-RLuc8 for Gs activation assay; Gαi1-RLuc8 for Gi activation assay), Gβ3 and Gγ9-GFP2 at a ratio of 2:1:1:1 (receptor plasmid, 800 ng; G protein subunit plasmids, 400 ng for each) in 2 ml HEK293F cells at a density of 1.2 × 10^6 cells per ml. Cell cultivation and receptor surface expression measurement were performed as described above. The cells were plated into 96-well white plates (40,000 cells per well) in 60 μl of assay buffer and incubated at 37 °C for 30 min. Then 10 μl of freshly prepared 50 μM coelenterazine 400a (Nanolight Technologies) was added. […] The cells were stimulated with 30 μl of synthetic stalk peptide at different concentrations and the BRET signals were monitored continuously five times. The last measurements were used in data analysis. The BRET ratios were calculated as the ratio of the GFP2 emission to RLuc8 emission.

ADGRF1 [1] = molecular target: T2, ADGRF1 (Homo sapiens, UniProt Q5T601, K791A); assay: BRET assay using TRUPATH biosensors, Gi activation of ADGRF1; conditions: ADGRF1 K791^6.40bA
T2 construct: Flag (N); expressed in transfected cells; host or cells: HEK293F
T2 sequence (Q5T601 20-910 K791A): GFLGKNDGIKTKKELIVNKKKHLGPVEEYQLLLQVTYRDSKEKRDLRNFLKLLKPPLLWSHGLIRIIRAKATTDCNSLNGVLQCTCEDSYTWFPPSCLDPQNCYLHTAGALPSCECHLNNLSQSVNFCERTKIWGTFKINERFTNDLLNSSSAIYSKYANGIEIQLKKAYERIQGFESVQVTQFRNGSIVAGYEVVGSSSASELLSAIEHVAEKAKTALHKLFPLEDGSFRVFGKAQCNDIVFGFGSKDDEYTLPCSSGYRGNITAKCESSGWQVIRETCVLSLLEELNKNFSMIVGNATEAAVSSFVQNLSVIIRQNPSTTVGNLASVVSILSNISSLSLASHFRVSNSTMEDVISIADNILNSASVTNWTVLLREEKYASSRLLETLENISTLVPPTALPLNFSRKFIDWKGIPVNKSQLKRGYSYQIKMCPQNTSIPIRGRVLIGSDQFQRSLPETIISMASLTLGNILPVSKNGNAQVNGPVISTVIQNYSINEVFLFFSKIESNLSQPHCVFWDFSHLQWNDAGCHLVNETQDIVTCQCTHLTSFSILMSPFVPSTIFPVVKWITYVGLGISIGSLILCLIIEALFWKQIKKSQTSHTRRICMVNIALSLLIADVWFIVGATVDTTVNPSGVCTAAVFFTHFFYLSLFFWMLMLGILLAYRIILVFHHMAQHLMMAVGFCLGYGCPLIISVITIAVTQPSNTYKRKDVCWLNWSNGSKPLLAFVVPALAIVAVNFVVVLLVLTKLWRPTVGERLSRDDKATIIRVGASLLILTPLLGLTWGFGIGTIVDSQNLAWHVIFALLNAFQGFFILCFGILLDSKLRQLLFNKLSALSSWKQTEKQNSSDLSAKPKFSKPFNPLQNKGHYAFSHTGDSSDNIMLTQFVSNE
In short: (§1)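 G protein activation by synthetic stalk peptides, read as GFP2-to-RLuc8 emission ratio from the fifth of five successive readings. Cells: HEK293F expressing receptor (WT or mutant) with GαsS-RLuc8 or Gαi1-RLuc8 plus Gβ3 and Gγ9-GFP2 (2:1:1:1). Pre-incubated 30 min at 37 °C; substrate coelenterazine 400a.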

ADGRF1 [2] = molecular target: T3, ADGRF1 (Homo sapiens, UniProt Q5T601, V765A); assay: as above; conditions: ADGRF1 V765^5.57bA
T3 construct: Flag (N); expressed in transfected cells; host or cells: HEK293F
In short: as §1

ADGRF1 [3] = molecular target: T4, ADGRF1 (Homo sapiens, UniProt Q5T601, V732A); assay: as above; conditions: ADGRF1 V732^ECL2A, n = 3
T4 construct: Flag (N); expressed in transfected cells; host or cells: HEK293F
In short: as §1

ADGRF1 [4] = molecular target: T5, ADGRF1 (Homo sapiens, UniProt Q5T601, Y684A); assay: as above; conditions: ADGRF1 Y684^3.56bA
T5 construct: Flag (N); expressed in transfected cells; host or cells: HEK293F
In short: as §1

[5] = n = 3, read-out: pEC50 (mean ± s.e.m.) (converted)

T3 sequence (Q5T601 20-910 V765A): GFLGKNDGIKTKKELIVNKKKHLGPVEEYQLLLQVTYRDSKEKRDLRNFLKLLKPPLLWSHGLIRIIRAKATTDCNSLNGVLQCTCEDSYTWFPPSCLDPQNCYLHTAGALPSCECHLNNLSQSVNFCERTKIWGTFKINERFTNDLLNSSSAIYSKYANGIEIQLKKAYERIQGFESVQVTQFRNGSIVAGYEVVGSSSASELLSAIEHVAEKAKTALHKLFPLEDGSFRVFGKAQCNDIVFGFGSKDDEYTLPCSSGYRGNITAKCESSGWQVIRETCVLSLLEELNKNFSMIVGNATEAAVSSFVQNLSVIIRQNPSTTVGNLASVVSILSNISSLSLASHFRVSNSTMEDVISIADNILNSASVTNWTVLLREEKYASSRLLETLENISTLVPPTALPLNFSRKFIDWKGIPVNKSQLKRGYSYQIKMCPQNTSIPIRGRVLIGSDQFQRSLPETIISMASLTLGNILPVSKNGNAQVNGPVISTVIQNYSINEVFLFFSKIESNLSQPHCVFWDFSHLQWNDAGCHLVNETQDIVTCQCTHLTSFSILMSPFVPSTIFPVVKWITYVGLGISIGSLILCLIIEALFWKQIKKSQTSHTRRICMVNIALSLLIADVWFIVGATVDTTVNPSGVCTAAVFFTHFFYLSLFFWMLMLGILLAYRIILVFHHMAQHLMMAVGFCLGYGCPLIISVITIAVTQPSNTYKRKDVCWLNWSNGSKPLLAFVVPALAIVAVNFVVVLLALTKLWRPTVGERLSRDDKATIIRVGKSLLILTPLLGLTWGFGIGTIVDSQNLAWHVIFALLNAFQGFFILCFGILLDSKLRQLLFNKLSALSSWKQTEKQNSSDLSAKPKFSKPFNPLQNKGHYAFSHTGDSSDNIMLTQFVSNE
T5 sequence (Q5T601 20-910 Y684A): as the sequence (Q5T601 20-910 V765A) above, with Y665A, A746V counted along it
T4 sequence (Q5T601 20-910 V732A): as the sequence (Q5T601 20-910 V765A) above, with V713A, A746V counted along it

TSFSILMSPFVP [pF1]
Emax (mean ± s.e.m.) (ADGRD1): 67 ± 12 % of WT
EC50 (ADGRD1; read-out: pEC50 (mean ± s.e.m.) (converted)): 1260 nM
Emax (mean ± s.e.m.) (ADGRF1 [1]; n = 3): 102 ± 13 % of WT
EC50 (ADGRF1 [1]; [5]): 102 nM
Emax (mean ± s.e.m.) (ADGRF1 [2]; n = 3): 92 ± 16 % of WT
EC50 (ADGRF1 [2]; [5]): 912 nM
EC50 (ADGRF1 [3]): 1950 nM
Emax (mean ± s.e.m.) (ADGRF1 [3]): 73 ± 13 % of WT
Emax (mean ± s.e.m.) (ADGRF1 [4]; n = 3): 115 ± 17 % of WT
EC50 (ADGRF1 [4]; [5]): 813 nM
